Source: patent publication US20260335294A1, “TREATING CONGENITAL DISORDERS OF GLYCOSYLATION” (Mayo Foundation for Medical Education and Research, priority 2022, published 2026)

What was measured:
[1] = test system: patient fibroblasts and healthy controls; experiment: Quantification of NADPH and NADP; format: cell-based, human; conditions: 10 μM, 24 h
Procedure: Fibroblasts from three patient fibroblasts (P2, P4, P5) and two healthy controls were plated on day 1. The next day medium was changed. The cells were grown in the presence and absence of […] epalrestat for another 24 hours. The medium was then removed, cells were washed with cold saline solution (0.9% NaCl) and 250 μL of extraction buffer (50% MeOH, 30% acetonitrile, 20% H2O Tris-HCl pH 7.6) was added to the cells. The metabolites were precipitated overnight at −80 °C, samples were centrifugated at 20,000 rpm, 20 minutes, 4 °C, and supernatant was transferred to a fresh vial. Pellets were used for determination of protein concentration. Supernatant containing metabolites was analyzed by LC/MS less than 24 hours after the initial collection to avoid degradation of NADPH into NADP. Relative abundance of NADP and NADPH was obtained. […]

[2] = test system: PMM2-CDG patients; experiment: Nijmegen Pediatric CDG Rating Scale (NPCRS) in patients on epalrestat; format: in vivo, human
Source text: The primary objective of the study was to assess the efficacy and safety of epalrestat treatment in 3 PMM2-CDG pediatric subjects prior to a planned Phase III clinical trial (Oral epalrestat therapy in Pediatric Subjects with PMM2-CDG, NCT04925960). The secondary objective was to assess the ability of epalrestat to improve clinically relevant aspects of PMM2-CDG such as increased urine polyols (sorbitol, mannitol), abnormal glycosylation (carbohydrate deficient transferrin), abnormal coagulation (ATIII=antithrombin III), impaired liver function (ALT=Alanine Transaminase, AST=Aspartate Transaminase), neurologic function (Brief Ataxia Rating Scale=BARS), severity of phenotype (Nijmegen Pediatric CDG Rating Scale=NPCRS). The ability of epalrestat to inhibit polyol production was monitored by evaluating urine polyol levels (sorbitol, mannitol), which are elevated in PMM2-CDG. Next, carbohydrate deficient transferrin, which is abnormal in PMM2-CDG, was evaluated in order to assess improvement of glycosylation following epalrestat treatment. CDT mono-oligo/dioligo ratio and a-oligo/dioligo ratio are used to evaluate glycosylation abnormalities. Transferrin normally occurs with two glycan chains (di-oligo). In the case of glycosylation abnormalities, glycan chains are missing (A-oligo transferrin has no glycan chains, mono-oligo has one glycan chain, di-oligo has two glycan chains). The higher ratio of a-oligo/di-oligo and mono-oligo/di-oligo indicate glycosylation abnormalities are present. Therefore, improvement in a-oligo/di-oligo and mono-oligo/di-oligo ratios can be used to monitor improvement or worsening of glycosylation status. Changes in the liver enzymes AST, ALT, which are frequently elevated in PMM2-CDG, were monitored both as part of a safety study and as part of monitoring clinical improvement in coagulation. Neurologic improvement was assessed by modified BARS scores in 2 patients (3rd patient was not eligible for the test due to age at the start of the trial). NPCRS was assessed at every visit to assess changes in the severity of the patients' phenotype. Additionally, the frequency of adverse events, changes in vital signs, complete blood count, and changes in BMI were monitored.
Two patients were started on epalrestat on single patient investigational new drug (IND) (P5 IRB: 19-010017; IND #145262; P6 Protocol PMM2-CDG-001/A). Epalrestat was initiated on the parents' own initiative in the third patient (P7). Two patients were in their second year of epalrestat treatment, while the third, was in the 3rd year of treatment. Physical, neurological, and biochemical examinations were performed in 3 PMM2-CDG patients at baseline, and at every three months after the start of the epalrestat treatment. Patients underwent NPCRS phenotype severity assessment and biological sampling at every visit. Epalrestat (Ono Pharmaceuticals, Osaka, Japan) was taken orally 3 times per day (TID) before meals in a divided dose, with dosage escalation throughout the treatment. The pharmacological profile of epalrestat was as described elsewhere (Ligezka et al, Ann. Neurol., 90(6):887-900 (2021)). The starting dosage in P5 and P6 was 0.8 mg/kg/day, while P7 was started on 0.5 mg/kg/day due to their young age. P7 dosage was increased to 0.8 mg/day after a month, once safety was established. Blood and urine samples were collected routinely. Urine polyols, carbohydrate deficient transferrin (CDT), anti-thrombin III (ATIII), liver enzymes (ALT, AST), and complete blood count (CBC) were performed. Modified Brief Ataxia Rating Scale was used to assess ataxia in the 2 patients (P5, P6; P7 was not eligible for the test due to age). The modified BARS scale included Archimedes spiral test, but not the abnormalities of the ocular pursuit system and the scale range was 0-54. Goal attainment scale (GAS) was administered as described per study protocol (ClinicalTrials.gov Identifier: NCT04199000). […]

[3] = test system: PMM2-CDG; conditions: Ligezka et al 2021; cited from earlier work
[4] = test system: aldose reductase (AR); conditions: role: inhibitor; cited from earlier work

SMILES: CC(/C=C1\SC(=S)N(CC(=O)O)C1=O)=C\c1ccccc1 [epalrestat]
- NADP abundance [1]: decreased
- NADPH abundance [1]: increased
- NADPH/NADP ratio ([1]; PMM2-CDG n=3, control n=2): increased
- Total NPCRS (max 78) ([2]; P5, 12 months, 1.5 mg/kg day, baseline 24): 20
- Total NPCRS (max 78) ([2]; P5, 24 months, 2 mg/kg day, baseline 24): 18
- Total NPCRS (max 78) ([2]; P5, 28 months, 3 mg/kg day, baseline 24): 18
- Phenotype severity (NPCRS) ([2]; P5, P7 improved, words): improvement was noted in 2 out of 3 patients
- Total NPCRS (max 78) ([2]; P6, 12 months, 1.5 mg/kg day, baseline 19): 19
- Total NPCRS (max 78) ([2]; P6, 18 months, 3 mg/kg day, baseline 19): 18
- Total NPCRS (max 78) ([2]; P7, 12 months, 1.5 mg/kg day, baseline 18): 15
- glycosylation in vivo [3]: improved glycosylation
- mode of inhibition of AR [4]: non-competitive inhibitor
